Structures are written as SMILES. Where a name gives a salt, the structure may show the parent alone.

A short description of the series: In vitro liver microsomal stability assay. It counts as in vitro ADME. The settings on record: '+' marks the bin; human liver microsomes 1 mg per mL protein, NADPH-generating system, 1 μM, 37° C.; compared to non-isotopically enriched drug. The protocol: Liver microsomal stability assays are conducted at 1 mg per mL liver microsome protein with an NADPH-generating system in 2% NaHCO3 (2.2 mM NADPH, 25.6 mM glucose 6-phosphate, 6 units per mL glucose 6-phosphate dehydrogenase and 3.3 mM MgCl2). Test compounds are prepared as solutions in 20% acetonitrile-water and added to the assay mixture (final assay concentration 1 μM) and incubated at 37° C. Final concentration of acetonitrile in the assay should be <1%. Aliquots (50 μL) are taken out at times 0, 0.25, […], and 1 hours, and diluted with ice cold acetonitrile (200 μL) to stop the reactions. Samples are centrifuged at 12,000 RPM for 10 min to precipitate proteins. Supernatants are transferred to micro centrifuge tubes and stored for LC/MS/MS analysis of the degradation half-life of the test compounds.

As to `[2H]C([2H])(N1CCN(c2cccc(Cl)c2)CC1)C([2H])([2H])C([2H])([2H])n1nc2ccccn2c1=O` [Example 5, 2-(3-(4-(3-Chlorophenyl)piperazin-1-yl)propyl-1,1,2,2,3,3-d6)-[1,2,4]triazolo[4,3-a]pyridin-3(2H)one hydrochloride], the “% increase of HLM degradation half-life, 0%-50%” value (from here on “% increase … 0%-50%”) is recorded as “+ (0%-50%)”.

For the compound `O=c1n(CCCN2CCN(c3cccc(Cl)c3)CC2)nc2ccccn12` [Example 1, 2-(3-(4-(3-Chlorophenyl)piperazin-1-yl)propyl)-[1,2,4]triazolo[4,3-a]pyridin-3(2H)one, reference compound], the “% increase of HLM degradation half-life, 50%-150%” value is given as “+ (50%-150%)”.

On to `[2H]C([2H])(CCn1nc2ccccn2c1=O)N1CCN(c2cccc(Cl)c2)CC1` [Example 2, 2-(3-(4-(3-Chlorophenyl)piperazin-1-yl)propyl-3,3-d2)-[1,2,4]triazolo[4,3-a]pyridin-3(2H)one hydrochloride], for which the “% increase of HLM degradation half-life, >150%” value is on record as “+ (>150%)”.

On to `[2H]C([2H])(CCN1CCN(c2cccc(Cl)c2)CC1)n1nc2ccccn2c1=O` [Example 3, 2-(3-(4-(3-Chlorophenyl)piperazin-1-yl)propyl-1,1-d2)-[1,2,4]triazolo[4,3-a]pyridin-3(2H)one hydrochloride], for which the “% increase … 0%-50%” value is recorded as “+ (0%-50%)”.

As for `[2H]C([2H])(CC([2H])([2H])n1nc2ccccn2c1=O)N1CCN(c2cccc(Cl)c2)CC1` [Example 4, 2-(3-(4-(3-Chlorophenyl)piperazin-1-yl)propyl-1,1,3,3-d4)-[1,2,4]triazolo[4,3-a]pyridin-3(2H)one hydrochloride], the “% increase … 0%-50%” value is reported as “+ (0%-50%)”.

For the origin of these results see patent publication US20090209550A1, “SUBSTITUTED TRIAZOLOPYRIDINES” (AUSPEX PHARMACEUTICALS, INC., priority 2008, published 2009).
